Measured values taken from US20090155337A1, “METHOD AND AGENT FOR IN-SITU STABILIZATION OF VASCULAR TISSUE” (ENDOLOGIX, INC., priority 2007, published 2009).

Test system: collagen
Assay: Shrinkage temperature testing of pericardial tissue fixed (cross-linked) in EGCG/PBS
Conditions: for Shrinkage Temperature: pH 7.42, 37° C., fresh tissue control 62.6 +/− 0.6
Procedure: A 7 cm×7 cm piece of pericardial tissue was fixed in 40 ml of 0.5% EGCG/phosphate buffered saline (PBS), pH 7.42 in a 100 mm petri dish at 37° C., 82 rpm shaking speed, for 15 min. After 15 minutes, the tissue was quickly rinsed with PBS. Three samples were cut out for immediate shrinkage temperature testing (Group A). Shrinkage temperature can be an indication of the stability of the tissue. Increased shrinkage temperature is associated with an increased resistance to degradation. An additional 7 cm×7 cm piece of pericardial tissue was fixed in 40 ml of 0.5% EGCG/PBS, pH 7.42 in a 100 mm petri dish at 37° C. for 48 hours and quickly rinsed in PBS for 15 minutes. Six samples were cut out for shrinkage temperature testing (Group B). Six samples of fresh pericardial tissue were also cut for shrinkage temperature testing (Group C—Control Group).

O=C(O[C@@H]1Cc2c(O)cc(O)cc2O[C@@H]1c1cc(O)c(O)c(O)c1)c1cc(O)c(O)c(O)c1 [EGCG, epigallocatechin gallate]
Shrinkage Temperature (Group A: pericardial tissue cross-linked for 15 min in 0.5% EGCG/PBS): 72.2 +/− 0.5 °C
Shrinkage Temperature (Group B: pericardial tissue cross-linked for 48 hours in 0.5% EGCG/PBS): 86.3 +/− 0.6 °C

Catechin
Stability of collagen via cross-linking (within 15 minutes of application under physiological conditions): increases the stability of collagen
